In the data set the test system is CCRIS mutagenicity, Ames/micronucleus/aberration tests. The experiment in a line: CCRIS mutagenicity studies.
Where [1] appears, read: Test System: AMES SALMONELLA TYPHIMURIUM, Strain/Indicator: TA98, Metabolic Activation: NONE, Method: PREINCUBATION
Where [2] appears, read: Test System: AMES SALMONELLA TYPHIMURIUM, Strain/Indicator: TA100, Metabolic Activation: NONE, Method: PREINCUBATION
The mark [3] stands for this setting: Test System: AMES SALMONELLA TYPHIMURIUM, Strain/Indicator: TA1535, Metabolic Activation: NONE, Method: PREINCUBATION
The mark [4] stands for this setting: Test System: AMES SALMONELLA TYPHIMURIUM, Strain/Indicator: TA1537, Metabolic Activation: NONE, Method: PREINCUBATION
The mark [5] stands for this setting: Test System: AMES SALMONELLA TYPHIMURIUM, Strain/Indicator: TA98, Metabolic Activation: NONE, Method: STANDARD PLATE.
Setting [6] is: Test System: AMES SALMONELLA TYPHIMURIUM, Strain/Indicator: TA100, Metabolic Activation: NONE, Method: STANDARD PLATE.
The mark [7] stands for this setting: Test System: AMES SALMONELLA TYPHIMURIUM, Strain/Indicator: TA102, Metabolic Activation: NONE, Method: STANDARD PLATE.

Activity calls are given as the source filed them. How the calls were made is not given here.

As to `C/C=C/Cl`, the mutagenic call (Test System: AMES SALMONELLA TYPHIMURIUM, Strain/Indicator: TA100, Metabolic Activation: NONE, Method: DESICCATOR) is “active; positive” and the mutagenic call (Test System: AMES SALMONELLA TYPHIMURIUM, Strain/Indicator: TA100, Metabolic Activation: RAT, LIVER, S-9, PCB OR PHENOBARBITAL, Method: DESICCATOR) is “active; positive”.

As for `C=C1CC(=O)O1`, the mutagenic call under setting [1] is “inactive; negative”; the mutagenic call (Test System: AMES SALMONELLA TYPHIMURIUM, Strain/Indicator: TA98, Metabolic Activation: RAT LIVER S-9, PHENOBARBITAL AND BETA-NAPHTHOFLAVONE, Method: PREINCUBATION) was “inactive; negative”; the mutagenic call under setting [2] is “inactive; negative”; the mutagenic call (Test System: AMES SALMONELLA TYPHIMURIUM, Strain/Indicator: TA100, Metabolic Activation: RAT LIVER S-9, PHENOBARBITAL AND BETA-NAPHTHOFLAVONE, Method: PREINCUBATION) is “inactive; negative”; the mutagenic call (Test System: AMES SALMONELLA TYPHIMURIUM, Strain/Indicator: TA102, Metabolic Activation: NONE, Method: PREINCUBATION) is “inactive; negative”; the mutagenic call (Test System: AMES SALMONELLA TYPHIMURIUM, Strain/Indicator: TA102, Metabolic Activation: RAT LIVER S-9, PHENOBARBITAL AND BETA-NAPHTHOFLAVONE, Method: PREINCUBATION) was “inactive; negative”. Besides, the mutagenic call reads like this: (Test System: AMES SALMONELLA TYPHIMURIUM, Strain/Indicator: TA104, Metabolic Activation: NONE, Method: PREINCUBATION) “inactive; negative”; (Test System: AMES SALMONELLA TYPHIMURIUM, Strain/Indicator: TA104, Metabolic Activation: RAT LIVER S-9, PHENOBARBITAL AND BETA-NAPHTHOFLAVONE, Method: PREINCUBATION) “inactive; negative”; under setting [3], “inactive; negative”; (Test System: AMES SALMONELLA TYPHIMURIUM, Strain/Indicator: TA1535, Metabolic Activation: RAT LIVER S-9, PHENOBARBITAL AND BETA-NAPHTHOFLAVONE, Method: PREINCUBATION) “inactive; negative”; under setting [4], “inactive; negative”; (Test System: AMES SALMONELLA TYPHIMURIUM, Strain/Indicator: TA1537, Metabolic Activation: RAT LIVER S-9, PHENOBARBITAL AND BETA-NAPHTHOFLAVONE, Method: PREINCUBATION) “inactive; negative”. Besides, the mutagenic call is “inactive; negative” (Test System: E.COLI, Strain/Indicator: WP2UVRA/PKM101, Metabolic Activation: NONE, Method: PREINCUBATION); “inactive; negative” (Test System: E.COLI, Strain/Indicator: WP2UVRA/PKM101, Metabolic Activation: RAT LIVER S-9, PHENOBARBITAL AND BETA-NAPHTHOFLAVONE, Method: PREINCUBATION); “inactive; negative” (Test System: E.COLI, Strain/Indicator: WP2UVRA, Metabolic Activation: NONE, Method: PREINCUBATION); “inactive; negative” (Test System: E.COLI, Strain/Indicator: WP2UVRA, Metabolic Activation: RAT LIVER S-9, PHENOBARBITAL AND BETA-NAPHTHOFLAVONE, Method: PREINCUBATION).

As to `CCCCCCCC/C=C\CCCCCCCCCCCC(=O)NCCCCCCCCCCCCCCCCCC`, the mutagenic call is, setting by setting: (Test System: AMES SALMONELLA TYPHIMURIUM, Strain/Indicator: TA97, Metabolic Activation: NONE, Method: STANDARD PLATE) “inactive; negative”; (Test System: AMES SALMONELLA TYPHIMURIUM, Strain/Indicator: TA97, Metabolic Activation: S-9, Method: STANDARD PLATE) “inactive; negative”; under setting [5], “inactive; negative”; (Test System: AMES SALMONELLA TYPHIMURIUM, Strain/Indicator: TA98, Metabolic Activation: S-9, Method: STANDARD PLATE) “inactive; negative”; under setting [6], “inactive; negative”; (Test System: AMES SALMONELLA TYPHIMURIUM, Strain/Indicator: TA100, Metabolic Activation: S-9, Method: STANDARD PLATE) “inactive; negative”. Moreover, the mutagenic call was “inactive; negative” under setting [7]; “inactive; negative” (Test System: AMES SALMONELLA TYPHIMURIUM, Strain/Indicator: TA102, Metabolic Activation: S-9, Method: STANDARD PLATE); “inactive; negative” (Test System: E.COLI, Strain/Indicator: WP2 (PKM101), Metabolic Activation: NONE, Method: STANDARD PLATE); “inactive; negative” (Test System: E.COLI, Strain/Indicator: WP2 (PKM101), Metabolic Activation: S-9, Method: STANDARD PLATE).

Consider `Clc1ccc(Cl)c(Cl)c1Cl`, for which the mutagenic call was “inactive; negative” (End Point: IN VITRO CHROMOSOMAL ABERRATIONS, Test System: CHO-LB CELLS, Metabolic Activation: NONE); “inactive; negative” (End Point: IN VITRO CHROMOSOMAL ABERRATIONS, Test System: CHO-LB CELLS, Metabolic Activation: RAT, LIVER, S-9, AROCLOR 1254); “inactive; negative” (Test System: AMES SALMONELLA TYPHIMURIUM, Strain/Indicator: TA98, Metabolic Activation: HAMSTER, LIVER, S-9, AROCLOR 1254, Method: PREINCUBATION); “inactive; negative” under setting [1]; “inactive; negative” (Test System: AMES SALMONELLA TYPHIMURIUM, Strain/Indicator: TA98, Metabolic Activation: RAT, LIVER, S-9, AROCLOR 1254, Method: PREINCUBATION); “inactive; negative” (Test System: AMES SALMONELLA TYPHIMURIUM, Strain/Indicator: TA100, Metabolic Activation: HAMSTER, LIVER, S-9, AROCLOR 1254, Method: PREINCUBATION). Besides, the mutagenic call is, setting by setting: under setting [2], “inactive; negative”; (Test System: AMES SALMONELLA TYPHIMURIUM, Strain/Indicator: TA100, Metabolic Activation: RAT, LIVER, S-9, AROCLOR 1254, Method: PREINCUBATION) “inactive; negative”; (Test System: AMES SALMONELLA TYPHIMURIUM, Strain/Indicator: TA1535, Metabolic Activation: HAMSTER, LIVER, S-9, AROCLOR 1254, Method: PREINCUBATION) “inactive; negative”; under setting [3], “inactive; negative”; (Test System: AMES SALMONELLA TYPHIMURIUM, Strain/Indicator: TA1535, Metabolic Activation: RAT, LIVER, S-9, AROCLOR 1254, Method: PREINCUBATION) “inactive; negative”; (Test System: AMES SALMONELLA TYPHIMURIUM, Strain/Indicator: TA1537, Metabolic Activation: HAMSTER, LIVER, S-9, AROCLOR 1254, Method: PREINCUBATION) “inactive; negative”. Moreover, the mutagenic call is, setting by setting: under setting [4], “inactive; negative”; (Test System: AMES SALMONELLA TYPHIMURIUM, Strain/Indicator: TA1537, Metabolic Activation: RAT, LIVER, S-9, AROCLOR 1254, Method: PREINCUBATION) “inactive; negative”.

As to `c1ccc2c(c1)CC[C@H]1CCC[C@@H]3O[C@]213`, the mutagenic call is “inactive; negative” under setting [5] and “inactive; negative” under setting [6].

For the compound `NN1C(=O)c2ccccc2C1=O`, the mutagenic call runs as follows: (Test System: AMES SALMONELLA TYPHIMURIUM, Strain/Indicator: TA97A, Metabolic Activation: NONE, Method: STANDARD PLATE) “inactive; negative”; (Test System: AMES SALMONELLA TYPHIMURIUM, Strain/Indicator: TA97A, Metabolic Activation: RAT, LIVER, S-9, AROCLOR 1254, Method: STANDARD PLATE) “inactive; negative”; under setting [6], “inactive; negative”; (Test System: AMES SALMONELLA TYPHIMURIUM, Strain/Indicator: TA100, Metabolic Activation: RAT, LIVER, S-9, AROCLOR 1254, Method: STANDARD PLATE) “inactive; negative”; under setting [7], “inactive; negative”; (Test System: AMES SALMONELLA TYPHIMURIUM, Strain/Indicator: TA102, Metabolic Activation: RAT, LIVER, S-9, AROCLOR 1254, Method: STANDARD PLATE) “inactive; negative”. Besides, the mutagenic call by setting is: (Test System: AMES SALMONELLA TYPHIMURIUM, Strain/Indicator: TA104, Metabolic Activation: NONE, Method: STANDARD PLATE) “inactive; negative”; (Test System: AMES SALMONELLA TYPHIMURIUM, Strain/Indicator: TA104, Metabolic Activation: RAT, LIVER, S-9, AROCLOR 1254, Method: STANDARD PLATE) “inactive; negative”.

Values taken from PubChem BioAssay AID1259407 (Chemical Carcinogenesis Research Information System (CCRIS), 2018).
